Measured values: patent US9446087B2, “Anti-resorptive and bone building dietary supplements and methods of use” (priority 2006, dated 2016)
Marks after values point to notes of the source that are not given here.

What was measured:
[1] = test system: ovariectomized (OVX) rat model; test: In vivo ovariectomized (OVX) rat study - histomorphology measurement; settings: OVX rats, 35 days, positive control 0.5 mg/day; vs placebo group
Experimental: (§1) Two different formulas were tested in an in vivo study involving female, […] rats, aged approximately 12-14 weeks, with approximate body weights between 200-250 grams. Formula 2 included varying dosages of pomegranate extract and grape seed extract and a fixed dosage of ipriflavone as reported in Table 18. Three dosages were tested for each formula. The study utilized 8 groups of rats, with 15 rats in each group and lasted approximately 35 days.
Table 18 below indicates the formula given to each of the 8 test groups. […]
The effectiveness of the formulas on antiresorption was assessed by outcome measurements that included DEXA scan (to determine bone mineral density), biomechanical measurement (to gather bone strength and functional information), micro-CT measurement (to assess virtual bone quality and functional information), and histomorphology measurement (to assess bone quality and functional information). […] These measurements were determined after 35 days of treatment.
Histomorphology measurement was also used as a tool to determine the efficacy of formulas 1 and 2 where trabecular bone volume from each group was quantified. […]

[2] = test system: calvaria (skull bones) from 4 day old pups; test: Calvarial Assay to Measure Inhibition of Bone Resorption (45Ca release); format: cell-based, CD-1 mice; settings: positive control
Experimental: In order to label cells of newborn mice in utero, pregnant CD-1 female mice (at timed day 15) were injected with ^45Ca (25 uCi/mouse). […] The bones were incubated at 37° C. in a 5% CO2 humidified incubator for a period of 24 hours following which they were transferred to wells containing 1 ml media with factors added (IL-1, PTH and or compounds.) The treated bones were incubated under the above conditions for a further 72 hours. […] The results were expressed as % ^45Ca release and can be further reported as T/C ratios. For some factors and compounds, modification of this procedure can be used. As most of the osteoclasts are formed in the calvaria following the preincubation period, the factors that affect osteoclast formation may have a greater effect during the preincubation period. Thus, for a number of the compounds, they were included in the preincubation media.

[3] = test system: ovariectomized (OVX) rat model; test: In vivo ovariectomized (OVX) rat study - biomechanical measurements; settings: OVX rats, 35 days, positive control 0.5 mg/day; vs placebo group
Experimental: as §1
Table 18 below indicates the formula given to each of the 8 test groups. The dosages in Table 18 are based on the recommended human dosages and were converted to the appropriate corresponding rat dose using the FDA conversion formula: Human equivalent dose (HED, mg/kg)=rat dose in mg/kg×(rat weight in kg/human weight in kg)^0.33 HED=rat NOAEL×(W-rat/W-human)^(1-b), b=0.67. […]
The effectiveness of the formulas on antiresorption was assessed by outcome measurements that included DEXA scan (to determine bone mineral density), biomechanical measurement (to gather bone strength and functional information), micro-CT measurement (to assess virtual bone quality and functional information), and histomorphology measurement (to assess bone quality and functional information). […] These measurements were determined after 35 days of treatment. […]

[4] = test system: ovariectomized (OVX) rat model; test: In vivo ovariectomized (OVX) rat study - micro-CT measurement; settings: OVX rats, 35 days, positive control 0.5 mg/day; vs placebo group
Experimental: Two different formulas were tested in an in vivo study involving female, intact rats, aged approximately 12-14 weeks, with approximate body weights between 200-250 grams. Formula 2 included varying dosages of pomegranate extract and grape seed extract and a fixed dosage of ipriflavone as reported in Table 18. Three dosages were tested for each formula. The study utilized 8 groups of rats, with 15 rats in each group and lasted approximately 35 days.
To introduce rapid bone resorption caused by estrogen withdrawal, the ovariectomized (OVX) rat model was used in this study. […] It was important to evaluate the effect of bone resorption caused by the ovariectomy procedure so a Sham control (n=6), a group of female rats without undergoing the ovariectomy procedure, was also included in the study.
This study employed a randomized placebo controlled dose response design. A total of 120 ovariectomized rats (n=15 per group) aged ˜12-14 weeks, with body weights of approximately 200-250 grams were randomly assigned to groups for 35 days. Animals were fed at 15 grams/day, which included either a placebo diet or one of the formulas listed above, for a period of 35 days from the beginning of the experiment. […]

With `NCCCC(O)(P(=O)(O)O)P(=O)(O)O` [Alendronate] the “% Bone Volume” value [1] was 214.1%^a, the “Inhibition of Bone Resorption/Release of Calcium By Combinations of Extracts, % Release” value ([2]; IL-1 + 0.1 μM) was 28.50 ± 1.19 % Release and the “Inhibition of Bone Resorption/Release of Calcium By Combinations of Extracts, % Release” value ([2]; IL-1 + 1 μM) was 17.00 ± 1.15^a % Release. For the same compound, the “Inhibition of Bone Resorption/Release of Calcium By Combinations of Extracts, % Release” value ([2]; IL-1 + 10 μM) was 14.07 ± 1.05^a % Release, the “Inhibition of Bone Resorption/Release of Calcium By Combinations of Extracts, % Release” value ([2]; IL-1 + 100 μM) was 12.00 ± 0.17^a % Release and the “Bone Stiffness” value [3] was 0.2%. For the same compound, the “Maximum Force Required to Fracture Bones” value [3] was −0.4%, the “% Bone Volume/ Total Volume” value [4] was 632%^a and the “Trabecular Number (N/6 mm^3)” value [4] was 313%^a. For the same compound, the “Trabecular Separation” value [4] was −88%^a.
